The subject of data set [1] is RD cell line (human rhabdomyosarcoma).
In data set [2] the test system is Poliovirus Sabin (Type 2H.010704). It counts as cell-based.

Consider one compound from US20120020946A1, “Methods for Inactivating Viruses” (priority 2009, published 2012).

In the case of `OCl` [Hypochlorite, Sodium hypochlorite], the “cytotoxicity score, no virus added” value in data set [1] is “N”. Further, the “infectivity score, virus added” value in data set [2] is reported as “N”.
